Assay results taken from article PMC9653409, “Generative deep learning enables the discovery of a potent and selective RIPK1 inhibitor” (Nature Communications, 2022).

Key:
Experiment in all cases: Kinase inhibitory activity profiling of RI-962@10 µM (406 kinases, Eurofins)
Assay type in all cases: biochemical
[1] = target: panel of human kinases (kinase named in endpoint) (Homo sapiens, UniProt Q16539); settings: 10 µM; read-out: Activity (%), SAPK2a(h)
Summary of the method: (§1)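 Radiometric filter-binding kinase assays: enzyme preincubated 15 min with compound in 8 mM MOPS pH 7.0, 0.2 mM EDTA, 250 μM peptide substrate, 10 mM magnesium acetate, 10 μM [γ-33P]-ATP. Reaction started with Mg/ATP, run 40 min at room temperature, stopped with phosphoric acid; 33P incorporation read by scintillation counting. Other kinases by similar protocols.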

[2] = target: panel of human kinases (kinase named in endpoint) (Homo sapiens, UniProt Q9UHD2); settings: 10 µM; read-out: Activity (%), TBK1(h)
Summary of the method: as §1

[3] = target: panel of human kinases (kinase named in endpoint) (Homo sapiens, UniProt P07947); settings: 10 µM; read-out: Activity (%), Yes(h)
Summary of the method: as §1

[4] = target: panel of human kinases (kinase named in endpoint) (Homo sapiens, UniProt P53355); settings: 10 µM; read-out: Activity (%), DAPK1(h)
Summary of the method: as §1

[5] = target: panel of human kinases (kinase named in endpoint) (Homo sapiens, UniProt Q14289); settings: 10 µM; read-out: Activity (%), Pyk2(h)
Summary of the method: as §1

[6] = target: panel of human kinases (kinase named in endpoint) (Homo sapiens, UniProt Q99986); settings: 10 µM; read-out: Activity (%), VRK1(h)
Summary of the method: as §1

[7] = target: panel of human kinases (kinase named in endpoint) (Homo sapiens, UniProt P42684); settings: 10 µM; read-out: Activity (%), Arg(h)
Summary of the method: as §1

[8] = target: panel of human kinases (kinase named in endpoint) (Homo sapiens, UniProt P11362); settings: 10 µM; read-out: Activity (%), FGFR1(h)
Summary of the method: as §1

[9] = target: panel of human kinases (kinase named in endpoint) (Homo sapiens, UniProt P11802); settings: 10 µM; read-out: Activity (%), CDK4/cyclinD3(h)
Summary of the method: as §1

[10] = target: panel of human kinases (kinase named in endpoint) (Homo sapiens, UniProt Q9UM73); settings: 10 µM; read-out: Activity (%), ALK(h)
Summary of the method: as §1

[11] = target: panel of human kinases (kinase named in endpoint) (Homo sapiens, UniProt Q13535); settings: 10 µM; read-out: Activity (%), ATR/ATRIP(h)
Summary of the method: as §1

[12] = target: panel of human kinases (kinase named in endpoint) (Homo sapiens, UniProt P00519, M351T); settings: 10 µM; read-out: Activity (%), Abl (M351T)(h)
Summary of the method: as §1

[13] = target: panel of human kinases (kinase named in endpoint) (Homo sapiens, UniProt Q13523); settings: 10 µM; read-out: Activity (%), PRP4(h)
Summary of the method: as §1

[14] = target: panel of human kinases (kinase named in endpoint) (Homo sapiens, UniProt P16591); settings: 10 µM; read-out: Activity (%), Fer(h)
Summary of the method: as §1

[15] = target: panel of human kinases (kinase named in endpoint) (Homo sapiens, UniProt Q9H3Y6); settings: 10 µM; read-out: Activity (%), SRMS(h)
Summary of the method: as §1

[16] = target: panel of human kinases (kinase named in endpoint) (Homo sapiens, UniProt Q96PN8); settings: 10 µM; read-out: Activity (%), TSSK3(h)
Summary of the method: as §1

[17] = target: panel of human kinases (kinase named in endpoint) (Homo sapiens, UniProt Q8IVW4); settings: 10 µM; read-out: Activity (%), CDKL3(h)
Summary of the method: as §1

[18] = target: panel of human kinases (kinase named in endpoint) (Homo sapiens, UniProt O15146); settings: 10 µM; read-out: Activity (%), MuSK(h)
Summary of the method: as §1

[19] = target: panel of human kinases (kinase named in endpoint) (Homo sapiens, UniProt P51812); settings: 10 µM; read-out: Activity (%), Rsk2(h)
Summary of the method: as §1

[20] = target: panel of human kinases (kinase named in endpoint) (Homo sapiens, UniProt Q9UKI8); settings: 10 µM; read-out: Activity (%), TLK1(h)
Summary of the method: as §1

[21] = target: panel of human kinases (kinase named in endpoint) (Homo sapiens, UniProt P49137); settings: 10 µM; read-out: Activity (%), MAPKAP-K2(h)
Summary of the method: as §1

[22] = target: panel of human kinases (kinase named in endpoint) (Homo sapiens, UniProt P36896); settings: 10 µM; read-out: Activity (%), ALK4(h)
Summary of the method: as §1

[23] = target: panel of human kinases (kinase named in endpoint) (Homo sapiens, UniProt P43403); settings: 10 µM; read-out: Activity (%), ZAP-70(h)
Summary of the method: as §1

[24] = target: panel of human kinases (kinase named in endpoint) (Homo sapiens, UniProt P00533, T790M); settings: 10 µM; read-out: Activity (%), EGFR(T790M)(h)
Summary of the method: as §1

[25] = target: panel of human kinases (kinase named in endpoint) (Homo sapiens, UniProt P00519, H396P); settings: 10 µM; read-out: Activity (%), Abl (H396P) (h)
Summary of the method: as §1

Chain of panel of human kinases (kinase named in endpoint) (Homo sapiens, UniProt P11362) (P11362 22-822): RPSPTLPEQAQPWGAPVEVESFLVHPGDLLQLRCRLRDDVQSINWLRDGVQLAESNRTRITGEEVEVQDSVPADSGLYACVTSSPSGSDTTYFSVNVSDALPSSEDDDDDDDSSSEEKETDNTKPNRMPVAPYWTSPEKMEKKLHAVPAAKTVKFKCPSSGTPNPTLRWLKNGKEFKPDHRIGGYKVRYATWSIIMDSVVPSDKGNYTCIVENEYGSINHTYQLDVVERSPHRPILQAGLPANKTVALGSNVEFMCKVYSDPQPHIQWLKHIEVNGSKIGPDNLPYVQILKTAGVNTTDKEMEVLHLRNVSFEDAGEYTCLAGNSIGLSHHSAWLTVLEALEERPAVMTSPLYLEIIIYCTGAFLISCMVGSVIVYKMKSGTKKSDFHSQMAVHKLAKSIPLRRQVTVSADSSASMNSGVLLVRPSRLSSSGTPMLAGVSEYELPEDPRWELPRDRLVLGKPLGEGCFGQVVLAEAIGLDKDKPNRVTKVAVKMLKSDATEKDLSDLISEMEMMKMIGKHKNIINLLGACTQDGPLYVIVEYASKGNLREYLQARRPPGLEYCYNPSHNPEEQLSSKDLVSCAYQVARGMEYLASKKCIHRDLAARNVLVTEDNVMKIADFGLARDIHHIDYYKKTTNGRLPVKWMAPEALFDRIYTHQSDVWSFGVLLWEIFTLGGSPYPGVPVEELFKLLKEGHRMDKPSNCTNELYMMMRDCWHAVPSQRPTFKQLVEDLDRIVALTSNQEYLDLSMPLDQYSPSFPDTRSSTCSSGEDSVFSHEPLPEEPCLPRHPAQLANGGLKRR
Chain of panel of human kinases (kinase named in endpoint) (Homo sapiens, UniProt P51812) (P51812 whole entry): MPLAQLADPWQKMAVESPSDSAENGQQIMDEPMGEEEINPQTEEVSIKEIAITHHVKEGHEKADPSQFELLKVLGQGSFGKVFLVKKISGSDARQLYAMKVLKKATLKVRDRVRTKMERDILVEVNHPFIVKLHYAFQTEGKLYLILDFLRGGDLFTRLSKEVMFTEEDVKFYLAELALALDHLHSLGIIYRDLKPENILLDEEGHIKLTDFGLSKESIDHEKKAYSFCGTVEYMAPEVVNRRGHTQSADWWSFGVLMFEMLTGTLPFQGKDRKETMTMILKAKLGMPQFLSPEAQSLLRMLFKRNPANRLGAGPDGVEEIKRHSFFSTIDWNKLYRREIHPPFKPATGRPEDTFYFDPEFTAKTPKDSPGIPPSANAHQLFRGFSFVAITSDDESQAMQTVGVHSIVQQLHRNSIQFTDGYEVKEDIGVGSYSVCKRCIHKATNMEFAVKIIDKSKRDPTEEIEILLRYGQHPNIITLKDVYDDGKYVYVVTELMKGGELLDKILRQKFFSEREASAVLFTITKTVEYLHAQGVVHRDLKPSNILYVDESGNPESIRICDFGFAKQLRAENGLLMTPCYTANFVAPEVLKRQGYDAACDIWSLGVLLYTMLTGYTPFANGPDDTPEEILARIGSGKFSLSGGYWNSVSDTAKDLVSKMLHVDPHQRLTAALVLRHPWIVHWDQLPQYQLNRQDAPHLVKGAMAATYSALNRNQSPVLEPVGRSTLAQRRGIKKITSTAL
Chain of panel of human kinases (kinase named in endpoint) (Homo sapiens, UniProt Q99986) (Q99986 whole entry): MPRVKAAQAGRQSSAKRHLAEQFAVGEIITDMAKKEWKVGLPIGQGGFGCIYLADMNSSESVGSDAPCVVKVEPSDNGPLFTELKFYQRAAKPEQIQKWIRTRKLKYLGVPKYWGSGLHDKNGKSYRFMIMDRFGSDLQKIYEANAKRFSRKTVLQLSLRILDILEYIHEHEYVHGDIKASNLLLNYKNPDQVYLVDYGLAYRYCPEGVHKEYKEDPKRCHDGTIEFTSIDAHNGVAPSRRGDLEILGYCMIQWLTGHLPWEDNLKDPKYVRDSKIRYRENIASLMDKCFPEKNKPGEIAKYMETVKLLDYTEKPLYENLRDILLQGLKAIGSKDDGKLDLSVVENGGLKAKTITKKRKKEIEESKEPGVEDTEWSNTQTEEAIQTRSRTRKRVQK
Chain of panel of human kinases (kinase named in endpoint) (Homo sapiens, UniProt P07947) (P07947 whole entry): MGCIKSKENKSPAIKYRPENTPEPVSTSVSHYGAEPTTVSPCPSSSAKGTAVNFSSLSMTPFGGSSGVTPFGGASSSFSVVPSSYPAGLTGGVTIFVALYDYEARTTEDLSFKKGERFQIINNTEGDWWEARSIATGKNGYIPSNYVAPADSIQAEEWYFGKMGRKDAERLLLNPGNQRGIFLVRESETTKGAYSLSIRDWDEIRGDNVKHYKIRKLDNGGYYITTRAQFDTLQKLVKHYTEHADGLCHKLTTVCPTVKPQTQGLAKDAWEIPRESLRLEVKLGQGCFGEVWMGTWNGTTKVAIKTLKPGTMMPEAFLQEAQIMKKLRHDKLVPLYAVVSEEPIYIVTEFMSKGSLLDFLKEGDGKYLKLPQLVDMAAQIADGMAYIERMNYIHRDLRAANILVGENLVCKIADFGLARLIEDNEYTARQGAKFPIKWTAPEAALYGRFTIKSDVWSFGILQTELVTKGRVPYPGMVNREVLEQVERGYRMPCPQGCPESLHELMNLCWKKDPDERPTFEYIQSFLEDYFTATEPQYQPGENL
Chain of panel of human kinases (kinase named in endpoint) (Homo sapiens, UniProt P36896) (P36896 24-505): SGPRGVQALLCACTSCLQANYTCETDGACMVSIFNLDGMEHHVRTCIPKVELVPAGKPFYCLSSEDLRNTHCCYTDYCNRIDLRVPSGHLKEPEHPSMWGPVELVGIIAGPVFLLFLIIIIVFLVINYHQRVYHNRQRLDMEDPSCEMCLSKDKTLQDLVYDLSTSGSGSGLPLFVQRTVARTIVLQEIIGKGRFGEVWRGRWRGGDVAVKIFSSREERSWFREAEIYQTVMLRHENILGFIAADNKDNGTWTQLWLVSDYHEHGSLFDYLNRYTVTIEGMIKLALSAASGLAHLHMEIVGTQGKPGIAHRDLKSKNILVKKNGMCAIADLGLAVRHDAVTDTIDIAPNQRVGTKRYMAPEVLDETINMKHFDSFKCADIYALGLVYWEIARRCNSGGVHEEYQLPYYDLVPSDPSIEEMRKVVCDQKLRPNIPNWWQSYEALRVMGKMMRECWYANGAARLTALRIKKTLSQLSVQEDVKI
Chain of panel of human kinases (kinase named in endpoint) (Homo sapiens, UniProt Q9UHD2) (Q9UHD2 whole entry): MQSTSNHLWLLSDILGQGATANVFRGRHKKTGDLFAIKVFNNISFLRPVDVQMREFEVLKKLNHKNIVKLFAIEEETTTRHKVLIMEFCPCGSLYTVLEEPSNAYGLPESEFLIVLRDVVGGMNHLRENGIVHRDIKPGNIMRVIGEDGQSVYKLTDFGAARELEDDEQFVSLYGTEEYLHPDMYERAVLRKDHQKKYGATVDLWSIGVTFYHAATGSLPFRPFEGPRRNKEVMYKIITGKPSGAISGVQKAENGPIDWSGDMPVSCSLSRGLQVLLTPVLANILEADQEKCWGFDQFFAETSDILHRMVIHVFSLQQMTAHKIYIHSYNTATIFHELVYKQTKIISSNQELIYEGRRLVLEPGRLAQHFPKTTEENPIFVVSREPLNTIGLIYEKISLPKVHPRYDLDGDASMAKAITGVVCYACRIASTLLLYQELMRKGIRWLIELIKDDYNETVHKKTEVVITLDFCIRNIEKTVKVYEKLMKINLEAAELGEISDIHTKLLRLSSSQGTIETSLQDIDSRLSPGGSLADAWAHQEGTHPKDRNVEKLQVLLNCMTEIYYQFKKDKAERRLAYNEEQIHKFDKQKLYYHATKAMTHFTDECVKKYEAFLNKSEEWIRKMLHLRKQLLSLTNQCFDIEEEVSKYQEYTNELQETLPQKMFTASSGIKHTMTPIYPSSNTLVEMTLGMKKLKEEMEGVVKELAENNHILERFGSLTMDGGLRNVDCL
Chain of panel of human kinases (kinase named in endpoint) (Homo sapiens, UniProt P43403) (P43403 whole entry): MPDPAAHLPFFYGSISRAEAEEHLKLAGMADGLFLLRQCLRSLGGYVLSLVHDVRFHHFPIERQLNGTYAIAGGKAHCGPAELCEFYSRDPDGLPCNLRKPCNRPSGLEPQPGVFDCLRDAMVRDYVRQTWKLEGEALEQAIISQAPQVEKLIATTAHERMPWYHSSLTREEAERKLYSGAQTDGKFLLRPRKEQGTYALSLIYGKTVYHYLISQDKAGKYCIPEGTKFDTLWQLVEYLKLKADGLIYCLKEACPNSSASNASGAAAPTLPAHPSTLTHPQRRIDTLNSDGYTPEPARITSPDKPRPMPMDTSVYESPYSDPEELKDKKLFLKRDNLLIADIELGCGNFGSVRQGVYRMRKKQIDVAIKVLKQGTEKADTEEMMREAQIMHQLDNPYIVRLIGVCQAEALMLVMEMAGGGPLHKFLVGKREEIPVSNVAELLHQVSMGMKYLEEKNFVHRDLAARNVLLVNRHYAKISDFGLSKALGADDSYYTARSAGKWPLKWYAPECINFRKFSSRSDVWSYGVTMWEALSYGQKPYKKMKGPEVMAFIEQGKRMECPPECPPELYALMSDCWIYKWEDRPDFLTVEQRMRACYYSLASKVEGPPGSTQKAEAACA
Chain of panel of human kinases (kinase named in endpoint) (Homo sapiens, UniProt P49137) (P49137 whole entry): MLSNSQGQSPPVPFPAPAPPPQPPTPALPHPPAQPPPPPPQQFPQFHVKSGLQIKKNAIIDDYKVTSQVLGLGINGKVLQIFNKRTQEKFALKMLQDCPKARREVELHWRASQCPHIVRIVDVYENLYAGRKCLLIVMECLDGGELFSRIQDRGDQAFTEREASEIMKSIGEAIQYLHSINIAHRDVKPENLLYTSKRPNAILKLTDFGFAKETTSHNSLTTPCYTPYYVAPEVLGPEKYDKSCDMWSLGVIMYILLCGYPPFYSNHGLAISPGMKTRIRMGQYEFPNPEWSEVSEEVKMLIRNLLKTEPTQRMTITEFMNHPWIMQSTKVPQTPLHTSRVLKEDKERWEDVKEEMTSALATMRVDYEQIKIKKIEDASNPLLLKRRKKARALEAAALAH
Chain of panel of human kinases (kinase named in endpoint) (Homo sapiens, UniProt Q96PN8) (Q96PN8 whole entry): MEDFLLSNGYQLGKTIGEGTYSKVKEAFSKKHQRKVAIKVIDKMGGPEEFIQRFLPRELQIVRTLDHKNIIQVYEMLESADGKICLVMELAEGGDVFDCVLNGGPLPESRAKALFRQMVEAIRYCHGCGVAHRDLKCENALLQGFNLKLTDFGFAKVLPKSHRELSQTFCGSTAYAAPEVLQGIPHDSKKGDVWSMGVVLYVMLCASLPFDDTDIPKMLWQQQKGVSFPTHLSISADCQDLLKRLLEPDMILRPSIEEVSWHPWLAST

CC(C)C(=O)Nc1nc2cc(-c3ccc4c(c3)c(C(=O)NC(C)c3ccccc3)cn4C)ccn2n1 (stereo not shown) [RI-962]
activity at 10 µM [1]: 118% | activity at 10 µM [2]: 90% | activity at 10 µM [3]: 97% | activity at 10 µM [4]: 95% | activity at 10 µM [5]: 106% | activity at 10 µM [6]: 86% | activity at 10 µM [7]: 106% | activity at 10 µM [8]: 81% | activity at 10 µM [9]: 75% | activity at 10 µM [10]: 68% | activity at 10 µM [11]: 108% | activity at 10 µM [12]: 121% | activity at 10 µM [13]: 88% | activity at 10 µM [14]: 107% | activity at 10 µM [15]: 101% | activity at 10 µM [16]: 94% | activity at 10 µM [17]: 84% | activity at 10 µM [18]: 52% | activity at 10 µM [19]: 106% | activity at 10 µM [20]: 69% | activity at 10 µM [21]: 97% | activity at 10 µM [22]: 90% | activity at 10 µM [23]: 95% | activity at 10 µM [24]: 119% | activity at 10 µM [25]: 110%
